The data set concerns rodent carcinogenicity bioassays, tumor incidence. Nature of the data set: CCRIS carcinogenicity studies. The method, boiled down: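 NCI-built, expert-reviewed records of carcinogenicity and related test outcomes (mutagenicity, tumor promotion/inhibition) compiled from published and report sources, historical span 1985-2011, not updated.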

The source made the active and inactive calls. No rule for the calls is given here.

On to `c1ccc2c(c1)-c1cccc3cccc-2c13`, for which the carcinogen call runs as follows: (Species: MOUSE, Strain/Sex: B6C3F1/MALE, Route: INTRAPERITONEAL, Dose: 0, 400 NMOL IN 35 µL DMSO ON DAYS 1 (1/7 TOTAL DOSE), 8 (2/7 TOTAL DOSE), AND 15 (4/7 TOTAL DOSE) AFTER BIRTH (STUDY DUR) “inactive; negative”; (Species: MOUSE, Strain/Sex: CD-1/FEMALE, Route: INTRAPERITONEAL, Dose: 0, 3.46, 17.3 UMOL (TOTAL DOSE) IN DMSO ADMINISTERED ON DAYS 1, 8, AND 15 OF LIFE (STUDY DURATION: 52 WK), Dose: 0, 3.46, 17.3 UMOL (TOTAL DOSE) IN DMSO ADMINISTERED ON DAYS 1, 8, AND 15 OF LIFE (STUDY DURATION: 52 WK), Tumor Site: Type of Lesion: LUNG: TUMOR) “active; positive”; (Species: MOUSE, Strain/Sex: CD-1/MALE, FEMALE, Route: INTRAPERITONEAL, Dose: 0, 0.7, 1.75, 3.5 (TOTAL DOSE) ADMINISTERED TO NEWBORN MICE ON DAYS 1, 8, AND 15 OF AGE IN 1/7, 2/7, AND 4/7 DOSES, RESP, Dose: 0, 0.7, 1.75, 3.5 (TOTAL DOSE) ADMINISTERED TO NEWBORN MICE ON DAYS 1, 8, AND 15 OF AGE IN 1/7, 2/7, AND 4/7 DOSES, RESP, Tumor Site: Type of Lesion: LUNG: ADENOMA OR ADENOCARCINOMA) “active; positive”; (Species: MOUSE, Strain/Sex: CD-1/MALE, Route: INTRAPERITONEAL, Dose: 0, 3.46, 17.3 UMOL (TOTAL DOSE) IN DMSO ADMINISTERED ON DAYS 1, 8, AND 15 OF LIFE (STUDY DURATION: 52 WK), Dose: 0, 3.46, 17.3 UMOL (TOTAL DOSE) IN DMSO ADMINISTERED ON DAYS 1, 8, AND 15 OF LIFE (STUDY DURATION: 52 WK), Tumor Site: Type of Lesion: LUNG: TUMOR, LIVER: TUMOR) “active; positive”; (Species: MOUSE, Strain/Sex: ICR/FEMALE, Route: INTRAPERITONEAL, Dose: 0, 257.6 UG TOTAL DOSE (36.8 UG/5 µL, 73.6 UG/10 µL, 147.2 UG/20 µL DMSO ON DAYS 1, 8 AND 15) ADMINISTERED TO NEWBORN AN, Tumor Site: Type of Lesion: LUNG: ADENOMA) “active; positive”; (Species: MOUSE, Strain/Sex: ICR/MALE, Route: INTRAPERITONEAL, Dose: 0, 257.6 UG TOTAL DOSE (36.8 UG/5 µL, 73.6 UG/10 µL, 147.2 UG/20 µL DMSO ON DAYS 1, 8 AND 15) ADMINISTERED TO NEWBORN AN, Tumor Site: Type of Lesion: LUNG: ADENOMA) “active; positive”. The carcinogen call was “active; positive” (Species: MOUSE, Strain/Sex: SWISS/FEMALE, Route: INTRAPERITONEAL, Dose: 0, 100, 500 UG IN DMSO ON DAY 1 OF STUDY FOLLOWED BY 0, 200, 1000 UG ON DAY 8 THEN 0, 400, 2000 UG ON DAY 15 ADMINISTERE, Dose: 0, 100, 500 UG IN DMSO ON DAY 1 OF STUDY FOLLOWED BY 0, 200, 1000 UG ON DAY 8 THEN 0, 400, 2000 UG ON DAY 15 ADMINISTERE, Tumor Site: Type of Lesion: LUNG: ADENOMA OR CARCINOMA) and “active; positive” (Species: MOUSE, Strain/Sex: SWISS/MALE, Route: INTRAPERITONEAL, Dose: 0, 100, 500 UG IN DMSO ON DAY 1 OF STUDY FOLLOWED BY 0, 200, 1000 UG ON DAY 8 THEN 0, 400, 2000 UG ON DAY 15 ADMINISTERE, Dose: 0, 100, 500 UG IN DMSO ON DAY 1 OF STUDY FOLLOWED BY 0, 200, 1000 UG ON DAY 8 THEN 0, 400, 2000 UG ON DAY 15 ADMINISTERE, Tumor Site: Type of Lesion: LUNG: ADENOMA OR CARCINOMA).

As for `Nc1cnn([C@@H]2O[C@H](CO)[C@@H](O)[C@H]2O)c(=O)n1`, where the note is “Species: RAT, Strain/Sex: F344/MALE, Route: INTRAPERITONEAL, Dose: 0, 2.5 MG/KG IN 0.9% SALINE 3/WK FOR 1 YR (STUDY DURATION: 1 YR)”, the carcinogen call was “inactive; negative”.

For the compound `COC(=O)C(c1ccccc1)C1CCCCN1` (stereo not given), the carcinogen call was “active; positive” (Species: MOUSE, Strain/Sex: B6C3F1/FEMALE, Route: ORAL, Dose: 0, 50, 250, 500 PPM IN DIET FOR 2 YR (STUDY DURATION: 2 YR), Dose: 0, 50, 250, 500 PPM IN DIET FOR 2 YR (STUDY DURATION: 2 YR), Tumor Site: Type of Lesion: LIVER: HEPATOCELLULAR ADENOMA); “active; positive” (Species: MOUSE, Strain/Sex: B6C3F1/MALE, Route: ORAL, Dose: 0, 50, 250, 500 PPM IN DIET FOR 2 YR (STUDY DURATION: 2 YR), Dose: 0, 50, 250, 500 PPM IN DIET FOR 2 YR (STUDY DURATION: 2 YR), Tumor Site: Type of Lesion: LIVER: HEPATOCELLULAR ADENOMA, HEPATOBLASTOMA); “inactive; negative” (Species: RAT, Strain/Sex: F344/FEMALE, Route: ORAL, Dose: 0, 100, 500, 1000 PPM IN DIET FOR 2 YR (STUDY DURATION: 2 YR), Dose: 0, 100, 500, 1000 PPM IN DIET FOR 2 YR (STUDY DURATION: 2 YR)); “inactive; negative” (Species: RAT, Strain/Sex: F344/MALE, Route: ORAL, Dose: 0, 100, 500, 1000 PPM IN DIET FOR 2 YR (STUDY DURATION: 2 YR), Dose: 0, 100, 500, 1000 PPM IN DIET FOR 2 YR (STUDY DURATION: 2 YR)).

Take `C[C@@]12CCC[C@H]1[C@@H]1CCc3cc(O)ccc3[C@H]1CC2`: the carcinogen call (Species: HAMSTER, Strain/Sex: SYRIAN/MALE, Route: SUBCUTANEOUS IMPLANT, Dose: 0, 20 MG IN PELLETS IMPLANTED EVERY 2.5 MO FOR 9 MO (STUDY DURATION: 9 MO)) was “inactive; negative”.

Turning to `Oc1c(Cl)cc(Cl)c(Cl)c1Cc1c(O)c(Cl)cc(Cl)c1Cl`, the carcinogen call was “inactive; negative” (Species: RAT, Strain/Sex: F344/FEMALE, Route: ORAL, Dose: 0, 17, 50, 150 PPM IN DIET, Dose: 0, 17, 50, 150 PPM IN DIET) and “inactive; negative” (Species: RAT, Strain/Sex: F344/MALE, Route: ORAL, Dose: 0, 17, 50, 150 PPM IN DIET, Dose: 0, 17, 50, 150 PPM IN DIET).

Take `CC(C)(C)Br`: where the note is “Species: MOUSE, Route: INTRAPERITONEAL, Tumor Site: Type of Lesion: LUNG”, the carcinogen call was “active; positive”.

As to `CC1CN(N=O)CC(C)N1` (stereo not given), under “Species: RAT, Strain/Sex: F344/FEMALE, Route: ORAL, Dose: 0, 100 MG/L IN DRINKING WATER 5 D/WK FOR 29 WK, STUDY DURATION: 40-50 WK, Dose: 0, 100 MG/L IN DRINKING WATER 5 D/WK FOR 29 WK, STUDY DURATION: 40-50 WK, Tumor Site: Type of Lesion: THYMUS GLAND: LYMPHOMA OR LEUKEMIA, MULTIPLE SITES: LYMPHOMA OR LEUKEMIA”, the carcinogen call was “active; positive”.

Regarding `Cc1ccc2c(c1[N+](=O)[O-])C(=O)c1ccccc1C2=O`, the carcinogen call by setting is: (Species: MOUSE, Strain/Sex: B6C3F1/FEMALE, Route: ORAL, Dose: 0, 0.03, 0.06% IN DIET, Dose: 0, 0.03, 0.06% IN DIET, Tumor Site: Type of Lesion: LIVER: HEMANGIOSARCOMA) “active; positive”; (Species: MOUSE, Strain/Sex: B6C3F1/MALE, Route: ORAL, Dose: 0, 0.03, 0.06% IN DIET, Dose: 0, 0.03, 0.06% IN DIET, Tumor Site: Type of Lesion: LIVER: HEMANGIOSARCOMA) “active; positive”; (Species: RAT, Strain/Sex: F344/MALE, Route: ORAL, Dose: 0, 0.12, 0.06% IN DIET, Dose: 0, 0.12, 0.06% IN DIET, Tumor Site: Type of Lesion: LIVER: HEPATOCELLULAR CARCINOMA OR NEOPLASTIC NODULE, INTEGUMENTARY SYSTEM (SUBCUTANEOUS TISSUE): FIBROMA) “active; positive”.

For `CCCCCCCCCCN(C)N=O`, the carcinogen call (Species: RAT, Strain/Sex: F344/MALE, Route: GAVAGE, Dose: 0, 108 MG/ML IN CORN OIL 2/WK FOR 30 WK, STUDY DURATION: 110 WK, Dose: 0, 108 MG/ML IN CORN OIL 2/WK FOR 30 WK, STUDY DURATION: 110 WK, Tumor Site: Type of Lesion: LUNG: ADENOCARCINOMA, BLADDER) was “active; positive”.

With `CCCN(CC(C)=O)N=O`, the carcinogen call is “active; positive” (Species: HAMSTER, Strain/Sex: SYRIAN/MALE,FEMALE, Route: SUBCUTANEOUS, Dose: 50-200 MG/KG 1/WK FOR LIFE, Tumor Site: Type of Lesion: RESPIRATORY TRACT, LIVER, KIDNEY, Tumor Site: Type of Lesion: RESPIRATORY TRACT, LIVER, KIDNEY); “active; positive” (Species: MOUSE, Strain/Sex: NMRI/FEMALE, Route: SUBCUTANEOUS, Dose: 0.05, 0.1, 0.2% OF 603 MG/KG IN SALINE 1/WK FOR LIFE, Dose: 0.05, 0.1, 0.2% OF 603 MG/KG IN SALINE 1/WK FOR LIFE, Tumor Site: Type of Lesion: LIVER: HEMANGIOENDOTHELIAL SARCOMA, NASAL CAVITY: PAPILLOMA, ADENOCARCINOMA, NASAL TURBINATES: PAPILLOMA, ADENOCARCINOMA, Tumor Site: Type of Lesion: LIVER: HEMANGIOENDOTHELIAL SARCOMA, NASAL CAVITY: PAPILLOMA, ADENOCARCINOMA, NASAL TURBINATES: PAPILLOMA, ADENOCARCINOMA); “active; positive” (Species: RAT, Strain/Sex: SPRAGUE-DAWLEY/MALE,FEMALE, Route: SUBCUTANEOUS, Dose: 0.12, 0.42, 0.85 MG/KG 1/WK FOR LIFE, Dose: 0.12, 0.42, 0.85 MG/KG 1/WK FOR LIFE, Tumor Site: Type of Lesion: LIVER: HEPATOMA, CARCINOMA).

For the origin of these results see PubChem BioAssay AID1259411 (Chemical Carcinogenesis Research Information System (CCRIS), 2018).
